In assay [1] the test system is DU145. The experiment in a line: functional siRNA cell proliferation assay (CTG assay, microscopy). As to conditions: DU-145 (Prostate); 4 txns; 7 days expt; n=6. The format is cell-based. The text has this: (§1) FIGS. 10 A-E illustrate graphs of the effects of siCD320 and siLRP2 on cell proliferation—Cell lines representative of several types of cancers (breast, prostate, skin) were transfected with individual or combinations of siRNAs targeting CD320 (OSC17, OSC47) or LRP2 (05L231, OSL245) as indicated. Cells were repeatedly transfected as outlined in Table 9 for efficient toxicity, then assayed for viability by the CTG assay. Doxorubicin-treated cells served as a positive control for cell toxicity in our assays (Table 8).
FIGS. 11A-B illustrate the effects of siCD320 and siLRP2 molar proportions on cell proliferation with different molar proportions of siRNA targeting CD320 and siRNA targeting LRP2. Cell lines representative of two types of cancers (breast, prostate) were transfected with different proportions of siRNAs targeting CD320 (OSC17) or LRP2 (05L245) (0-20 nM) or a negative control siRNA (OSS2) as indicated. Cells were repeatedly transfected for efficient toxicity then assayed for viability by the CTG assay. Doxorubicin-treated cells served as a positive control for cell toxicity in our assays (Table 8).
FIGS. 16 A-D illustrate plated cells showing the effects of siCD320 and siLRP2 on four cell lines. […] Cells were repeatedly transfected for efficient toxicity as in Table 9 and then analyzed by microscopy as indicated. […]

In assay [2] the test system is GM05659. The experiment in a line: functional siRNA cell proliferation screening (CTG assay). The format is cell-based. As to conditions: GM05659 (Normal); 4 txns; 7 days expt; n=3. As to the method:
as §1, with “9” for “10”, “percent cell survival” for “effects”, “(lung, brain) or normal fibroblasts” for “(breast, prostate, skin)”, “OSL245), individually at 20 nM or in combination (10 nM each), or a negative control siRNA (OSS2) (20 nM)” for “OSL245)”
as §1
(§2) Referring now to FIG. 16, treatment of breast, prostate, and skin cancer cells with an inhibitor of CD320 receptor or an inhibitor of LRP2 receptor or a combination of both in an amount effective to inhibit proliferation of the cancer cells as compared to the control cells treated with control siRNA is illustrated. MDA-MB-231, DU145, LnCAP, and MDA-MB-435S cells were plated at 20,000 cells per well in a 24-well plate. The next day, the cells were transected with 20 nM of indicated siRNAs to knock down CD320, LRP2, or scrambled control. For the combination of siRNAs, cells were treated with 10 nM of each siRNA for 20 nM total treatments. The indicated pictures of the cells were taken at the end of the experiment.

Assay [3] has as its system HCC15. The assay is described as above. The conditions noted are these: HCC15 (Lung); 2 txns; 7 days expt; n=3. The format is cell-based. As to the method: as §1, with “9” for “10”, “percent cell survival” for “effects”, “(lung, brain) or normal fibroblasts” for “(breast, prostate, skin)”, “OSL245), individually at 20 nM or in combination (10 nM each), or a negative control siRNA (OSS2) (20 nM)” for “OSL245)”
as §1, §2

The test system of assay [4] is MCF-7. Described as above. The format is cell-based. As to conditions: MCF-7 (Breast); 2 txns; 7 days expt; n=3. As to the method: as §1, with “9” for “10”, “percent cell survival” for “effects”, “(lung, brain) or normal fibroblasts” for “(breast, prostate, skin)”, “OSL245), individually at 20 nM or in combination (10 nM each), or a negative control siRNA (OSS2) (20 nM)” for “OSL245)”
as §1, §2

The subject of assay [5] is U251. Described as above. The format is cell-based. As to conditions: U251 (Glioblastoma); 6 txns; 8 days expt; n=4. The procedure: as §1, with “9” for “10”, “percent cell survival” for “effects”, “(lung, brain) or normal fibroblasts” for “(breast, prostate, skin)”, “OSL245), individually at 20 nM or in combination (10 nM each), or a negative control siRNA (OSS2) (20 nM)” for “OSL245)”
as §1, §2

Assay [6] relates to A172. The assay is described as above. The format is cell-based. As to conditions: A172 (Glioblastoma); 5 txns; 7 days expt; n=3. The procedure:
as §1, with “9” for “10”, “percent cell survival” for “effects”, “(lung, brain) or normal fibroblasts” for “(breast, prostate, skin)”, “OSL245), individually at 20 nM or in combination (10 nM each), or a negative control siRNA (OSS2) (20 nM)” for “OSL245)”
as §1, §2

The test system of assay [7] is H157. Described as above. As to conditions: H157 (Lung); 5 txns; 8 days expt; n=3. The format is cell-based. The procedure:
as §1, with “9” for “10”, “percent cell survival” for “effects”, “(lung, brain) or normal fibroblasts” for “(breast, prostate, skin)”, “OSL245), individually at 20 nM or in combination (10 nM each), or a negative control siRNA (OSS2) (20 nM)” for “OSL245)”
as §1, §2

Assay [8] deals with MDA-MB-231. The experiment in a line: functional siRNA cell proliferation assay (CTG assay, microscopy). The format is cell-based. The conditions noted are these: MDA-MB-231 (Breast); 4 txns; 11 days expt; n=6.
Excerpt: as §1
FIGS. 11A-B illustrate the effects of siCD320 and siLRP2 molar proportions on cell proliferation with different molar proportions of siRNA targeting CD320 and siRNA targeting LRP2. Cell lines representative of two types of cancers (breast, prostate) were transfected with different proportions of siRNAs targeting CD320 (OSC17) or LRP2 (05L245) (0-20 nM) or a negative control siRNA (OSS2) as indicated. […]
FIGS. 16 A-D illustrate plated cells showing the effects of siCD320 and siLRP2 on four cell lines. […] Cells were repeatedly transfected for efficient toxicity as in Table 9 and then analyzed by microscopy as indicated.
Now, referring to FIG. 10B, MDA-MB-231 triple negative breast cancer cells were plated in a 24-well plate at 20,000 cells/well. […] At day 11, cells were analyzed for cell growth by the CTG assay. […]

The subject of assay [9] is LncAP. Described as above. The format is cell-based. The conditions noted are these: LnCAP (Prostate); 4 txns; 7 days expt; n=3.
Excerpt: as §1
(§3) FIGS. 16 A-D illustrate plated cells showing the effects of siCD320 and siLRP2 on four cell lines. Cell lines representative of four types of cancers (breast, two prostate, skin) were transfected with siRNAs targeting CD320 (OSC17) or LRP2 (05L245) individually at 20 nM or in combination (10 nM each) or a negative control siRNA (OSS2) (20 nM) as indicated. Cells were repeatedly transfected for efficient toxicity as in Table 9 and then analyzed by microscopy as indicated.
(§4) Referring now to FIG. 16, treatment of breast, prostate, and skin cancer cells with an inhibitor of CD320 receptor or an inhibitor of LRP2 receptor or a combination of both in an amount effective to inhibit proliferation of the cancer cells as compared to the control cells treated with control siRNA is illustrated. […]

For assay [10], the system named is MDA-MB-435S. Described as above. The format is cell-based, human. As to conditions: MDA-MB-435S (Melanoma); 5 txns; 10 days expt; n=4.
Excerpt: as §1, §3, §4

For the molecule `COc1cccc2c1C(=O)c1c(O)c3c(c(O)c1C2=O)C[C@@](O)(C(=O)CO)C[C@@H]3O[C@H]1C[C@H](N)[C@H](O)[C@H](C)O1` [DOX], the “percent survival compared to negative control OSS2” value in assay [1] was 40%; in [2], 39%; in assay [3], 2%; in assay [4], 5%; in assay [5] it was 51%; in [6], 8%. Besides, the “percent survival compared to negative control OSS2” value in assay [7] was 20%; in assay [8] it was 7%; in assay [9], 38%; in [10] it was 51%.

Source of the values: patent US12305171B2, “Compositions and methods for treating cancer” (bioAffinity Technologies, Inc., priority 2018, dated 2025).
